Laboratory results from patent EP0107306A1, “Imidazoline derivatives” (BEECHAM GROUP PLC, priority 1982, dated 1984).
Counter-ions that a name gives are not always drawn. Marks after values point to notes of the source that are not given here.

Test system: E coli B44 (09:K90:K99)
Assay: Protection of neonatal mice from lethal enteropathogenic E coli infection
Type: in vivo
Conditions: 4 day old mice orally infected; for % Protection by drug: mortality in drug group compared with placebo group
Method: 4 day old mice were orally dosed with 50pl of phosphate buffered saline containing 1 x 10^5 organisms/ml of E coli B44 (09:K90:K99) an enteropathogenic strain originally isolated from a scouring calf. The mice were then dosed b.i.d. with either placebo or drug for four days commencing 16 hours after infection. The animals were left with their mothers throughout the experiment and a daily record of deaths was made. The experiment was terminated when no mortality was seen over a 24 hour period. (Usually 7-10 days after infection). The mortality in the drug group was then compared with the mortality in the placebo group using the following formula:- [formula]
where Mp = mortality in group receiving placebo Md = mortality in group receiving drug
Statistical analysis was performed using 2 x 2 contingency tables (single tailed 'p').

[1] = drug 10mg/kg b.i.d. for four days commencing 16 hours after infection
[2] = drug 10mg/kg b.i.d. for four days

Structure (SMILES) | % Mortality [1] [%] | No of mice dead after 10 days [1] | % Protection by drug [2] | % Mortality (drug 50mg/kg b.i.d. for four days commencing 16 hours after infection) [%] | No of mice dead after 10 days (drug 50mg/kg b.i.d. for four days commencing 16 hours after infection, 68 mice infected) | % Protection by drug (drug 50mg/kg b.i.d. for four days)
CC[N+](CC)(CC)Cc1cc(Cl)c(N=C2NCCN2)c(Cl)c1 [Example I, 2,(2,6-Dichloro-4-triethylammoniomethylphenylimino)-imidazolidine bromide] | 32 | 22 | 40* % | 29 | 20 | 46* %
C[N+](C)(C)Cc1cc(Cl)c(N=C2NCCN2)c(Cl)c1 [Example 6, 2-(2,6-Dichloro-4-trimethylammoniomethylphenylimino)-imidazolidine bromide Hydrobromide.] | 71 | 52 | 15% | – | – | –
